{"source": "patent US20140179607A9", "about": "(IRONWOOD PHARMACEUTICALS, INC, priority 2009, published 2014)", "key": {"[1]": {"test_system": "potato acid phosphatase (PoAP)", "experiment": "Acid phosphatase reaction, potato acid phosphatase", "assay_type": "in vitro ADME", "settings": "potato acid phosphatase (PoAP); Potato acid phosphatase pH 5, 90 minutes at 37° C.", "description": "(§1) For the alkaline phosphatase reactions, peptide stocks were prepared at 1 mg/mL in 0.1 M Tris-HCl pH 8, which were stored at −20° C. until assays were conducted. For the acid phosphatase reactions, peptide stocks were prepared at 1 mg/mL in 50 mM sodium phosphate pH 6, which was stored at −20° C. until assays were conducted.\n(§2) Potato acid phosphatase (PoAP) was obtained from Sigma, St. Louis, Miss. Cat #P1146 and human prostate acid phosphatase (HuPrAP) was obtained from MP Biochemicals, Solon, Ohio. Cat # 153872. The acid phosphatases were dissolved to provide a solution containing 0.5 units AP/μL using 50 mM sodium acetate pH 5, 0.2 mM MgCl2. The acid phosphatase reactions were assembled in 20 μL quantities containing: • 2 μL 10× acid phosphatase buffer (500 mM sodium acetate pH 5, 2 mM MgCl2) • 2 μL peptide stock (1 mg/mL) • 12 μL H2O • 4 μL acid phosphatase (0.5 or 2 units)\n(§3) The reaction solutions were mixed gently and incubated for 90 minutes at 37° C. The reaction solutions were stored at −20° C. for later analysis. For analysis, 7.5 μL acid phosphatase reactions were diluted to 50 μL with 0.1% formic acid in water to a final concentration of 10 μM. The control reactions for enzyme activity were assembled and diluted to 10 mM p-nitrophenylphosphate in place of peptide. After incubation, the reactions were diluted with 0.1 mL of 100 mM borate buffer pH 9 and read at the absorbance of 405 nm to monitor p-nitrophenol appearance."}, "[2]": {"test_system": "Potato acid phosphatase (PoAP)", "experiment": "Acid phosphatase reaction, potato acid phosphatase", "assay_type": "in vitro ADME", "settings": "Potato acid phosphatase pH 5, 90 minutes at 37° C.", "description": "as §1, §2, §3"}, "[3]": {"test_system": "T1, calf intestinal alkaline phosphatase (CIP)", "T1 construct": "purchased New England BioLabs, Ipswich, Mass; M0290S", "experiment": "Alkaline phosphatase reaction (dephosphorylation of peptide substrates, LCMS)", "assay_type": "in vitro ADME", "settings": "calf intestinal alkaline phosphatase (CIP); Alkaline phosphatase pH 8, 90 minutes at 37° C.", "description": "as §1\n(§4) Calf intestinal alkaline phosphatase (CIP) was obtained from New England BioLabs, Ipswich, Mass. Cat # M0290S. The CIP reaction solution was prepared by dilution with buffer (50 mM KCl, 10 mM Tris-HCl pH 8, 1 mM MgCl2, 50% glycerol) to 0.5 units/μL. The alkaline phosphatase reaction solutions were assembled in 20 μL quantities containing: • 2 μL 10× CIP buffer (1M NaCl, 500 mM Tris-HCl pH 8, 100 mM MgCl2) • 2 μL peptide stock (1 mg/mL) • 12 μL H2O • 4 μL alkaline phosphatase (0, 0.5 or 2 units)\n(§5) The reaction solutions were mixed gently and incubated for 90 minutes at 37° C. These reaction solutions were stored at −20° C. until analysis. For analysis, the reaction solutions were diluted from 7.5 μL of CIP treated peptide to 50 μL with 0.1% formic acid in water to a final concentration of 10 μM.\n(§6) Control reactions were assembled for enzyme activity containing 10 mM p-nitrophenylphosphate in place of peptide. After incubation, the reactions were diluted with 0.1 mL of 100 mM borate buffer pH 9 and read at the absorbance of 405 nm to monitor p-nitrophenol appearance."}, "[4]": {"target": "T2, Calf intestinal alkaline phosphatase (CIP) (Bos taurus, UniProt P19111)", "T2 construct": "purchased New England BioLabs, Ipswich, Mass; M0290S", "T2 sequence (P19111 20-506)": "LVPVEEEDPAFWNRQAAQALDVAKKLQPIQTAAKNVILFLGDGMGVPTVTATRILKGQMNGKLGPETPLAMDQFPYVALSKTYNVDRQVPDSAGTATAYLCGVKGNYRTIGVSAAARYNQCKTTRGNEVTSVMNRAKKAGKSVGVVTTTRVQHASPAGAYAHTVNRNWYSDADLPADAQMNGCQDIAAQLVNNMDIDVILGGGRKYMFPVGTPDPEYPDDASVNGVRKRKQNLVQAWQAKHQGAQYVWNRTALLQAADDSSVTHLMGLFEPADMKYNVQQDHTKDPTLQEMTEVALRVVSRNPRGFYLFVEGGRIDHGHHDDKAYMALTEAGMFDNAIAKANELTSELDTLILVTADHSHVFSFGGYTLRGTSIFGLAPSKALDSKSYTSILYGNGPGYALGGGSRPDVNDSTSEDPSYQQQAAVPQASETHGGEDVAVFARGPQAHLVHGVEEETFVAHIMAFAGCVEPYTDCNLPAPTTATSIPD", "experiment": "Alkaline phosphatase reaction (dephosphorylation of peptide substrates, LCMS)", "assay_type": "in vitro ADME", "settings": "Alkaline phosphatase pH 8, 90 minutes at 37° C.", "description": "as §1, §4, §5, §6"}, "[5]": {"target": "T3, human prostate acid phosphatase (HuPrAP) (Homo sapiens, UniProt P15309)", "T3 construct": "purchased MP Biochemicals, Solon, Ohio 153872", "T3 sequence (P15309 33-386)": "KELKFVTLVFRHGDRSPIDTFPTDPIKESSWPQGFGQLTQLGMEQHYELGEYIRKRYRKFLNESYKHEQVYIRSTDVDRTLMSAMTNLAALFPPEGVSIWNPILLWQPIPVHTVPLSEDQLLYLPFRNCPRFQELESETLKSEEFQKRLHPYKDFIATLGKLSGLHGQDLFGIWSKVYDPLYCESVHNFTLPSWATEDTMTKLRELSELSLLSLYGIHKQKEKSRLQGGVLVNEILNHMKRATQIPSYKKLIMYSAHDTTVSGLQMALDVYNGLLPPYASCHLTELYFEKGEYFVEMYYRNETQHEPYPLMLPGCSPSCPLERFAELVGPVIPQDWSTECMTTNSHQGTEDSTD", "experiment": "Acid phosphatase reaction, human prostate acid phosphatase", "assay_type": "in vitro ADME", "settings": "Human prostatic acid phosphatase pH 5, 90 minutes at 37° C.", "description": "as §1, §2, §3"}, "female CD-1 mice": {"test_system": "female CD-1 mice", "experiment": "Gastrointestinal transit in mice (charcoal meal)", "assay_type": "in vivo", "settings": "oral gavage, % distance travelled by charcoal front", "description": "The purpose of the assay was to test the effect of the guanylate cyclase C agonist peptides on in vivo gastrointestinal transit in mice.\nFor the assay, female CD-1 mice (n=10 per group) weighing 25-30 g were fasted overnight and given access to water ad libitum. Activated charcoal (20 g; 100 mesh; Sigma cat# 242276) was suspended in 200 mL gum arabic (100 mg/mL), and stirred for at least one hour. Test peptides were prepared in a 20 mM Tris pH 6.9 vehicle.\nTest peptide and vehicle were administered in 200 μL doses by oral gavage. Seven minutes after dosing the test peptides, 200 μL of the charcoal/gum arabic suspension was dosed by oral gavage. […] The total length of the small intestine was measured from the pyloric junction to the ileocaecal junction. The distance travelled by the charcoal was measured from the pyloric junction to the charcoal front. The Distance Travelled (%) was determined as (distance travelled by charcoal/total length of the small intestine)×100. Data were entered into the GraphPad Prism software program and analyzed by ANOVA using a Bonferroni multiple comparison test post-hoc. Plots of data and ED50 were also determined using the GraphPad Prism software package.\nThe dose-dependent effects of acute doses of Peptide 4, Peptide 1, Peptide 2, the dephosphorylated form of Peptide 1 and the dephosphorylated form of Peptide 2 on GI transit were determined in female CD mice. […]"}, "[6]": {"test_system": "ligated rat duodenal loops", "experiment": "Fluid secretion in rat intestinal loops", "assay_type": "in vivo, rats", "description": "The effect of GC-C agonist peptides on secretion were studied by injecting GC-C agonist peptides described herein directly into an isolated loop in wild-type rats.\nLoops were isolated by surgically ligating three loops in the small intestine of the rat. The methodology for ligated loop formation was similar to that described in (London et al., 1997, Am J Physiol, p. G93-105). The loops were roughly centered and at lengths of 1-3 cm. The loops were injected with 200 μl of either peptide/GC-C agonist (0.1-5 μg) or vehicle (20 mM Tris, pH 7.5 or Krebs Ringer, 10 mM Glucose, HEPES buffer (KRGH)). Following a recovery time of up to 90 minutes the loops were excised. Weights were recorded for each loop before and after removal of the fluid contained therein. The length of each loop was also recorded. A weight to length ratio (W/L) for each loop was calculated to determine the effects of the GC-C agonist peptide described herein on secretion. Loop fluid volume was also determined.\nData showing increases in fluid secretion, pH increase and bicarbonate secretion in ligated duodenal loops in rats are shown in FIG. 2 and Table 8. […] Table 8 provides the results in ligated rat duodenal loops using 2.5 μg of peptide per loop."}, "[7]": {"settings": "2.5 μg of peptide per loop, duodenal loops"}}, "note": "Positions of bridges follow the written chain, without caps; N, C: chain ends. Non-standard residues stand in square brackets, D forms with d. Residues, ends and D or L forms follow the SMILES beside them. pS = N[C@@H](COP(=O)(O)O)C(=O)O", "data": [{"molecule": "CC(C)C[C@@H]1NC(=O)[C@H](COP(=O)(O)O)NC(=O)[C@@H]2CSSC[C@@H]3NC(=O)[C@H](C)NC(=O)[C@@H]4CCCN4C(=O)[C@H](CC(N)=O)NC(=O)[C@H](CSSC[C@H](N)C(=O)N2)NC(=O)[C@H](CSSC[C@@H](C(=O)N[C@@H](Cc2ccc(O)cc2)C(=O)O)NC(=O)CNC(=O)[C@H]([C@@H](C)O)NC3=O)NC1=O", "note": "[Peptide 1, CCpSLCCNPACTGCY] (H-CC[pS]LCCNPACTGCY-OH; disulfide 1-6, 2-10, 5-13 (inferred); N-terminus and C-terminus assumed)", "values": [{"measurement": "remaining at 1.5 h, 0.1 mg/mL", "setting": "[1]", "value": 77.8, "unit": "%"}, {"measurement": "Dephospho (%)", "setting": "[2]", "value": 22.1, "unit": "%"}, {"measurement": "remaining at 1.5 h, 0.1 mg/mL", "setting": "[3]", "value": 0, "unit": "%"}, {"measurement": "Dephospho (%)", "setting": "[4]", "value": 100, "unit": "%"}, {"measurement": "Dephospho (%)", "setting": "[5]", "value": 6.2, "unit": "%"}, {"measurement": "remaining at 1.5 h, 0.1 mg/mL", "setting": "[5]; human prostate acid phosphatase (HuPrAP)", "value": 93.8, "unit": "%"}]}, {"molecule": "CCEFCCNPACTGCY [Peptide 4, GC-C agonist peptide with Glu in place of phosphoserine, used as comparator]", "values": [{"measurement": "ED50 (μg/kg), acceleration of upper GI transit", "setting": "female CD-1 mice", "value": 2.06, "unit": "µg/kg"}, {"measurement": "Rate of HCO3^− accumulation", "setting": "[6]; [7]", "value": 0.00008, "unit": "Meq/min/cm"}, {"measurement": "Rate of fluid accumulation", "setting": "[6]; [7]", "value": 2.0, "unit": "µL/min/cm"}, {"measurement": "pH", "setting": "[6]; [7]", "value": 8.2}, {"measurement": "Induction of fluid accumulation / duodenal fluid secretion (FIG. 2)", "setting": "[6]; ligated rat duodenal loops", "value": "promote duodenal fluid secretion"}]}]}
